Laboratory results as given in patent publication US10399940B2, “Substituted pyrrolidines and methods of use” (AbbVie S.à.r.l., priority 2016, dated 2019).
Like-named read-outs stand apart in the source and are kept apart here.

Target: T1, F508delCFTR (Homo sapiens, UniProt P13569, DEL508-508)
T1 construct: expressed in transfected cells; host or cells: CFBE41o- (human lung derived epithelial cell line), doxycycline-inducible expression
Assay: Cell Surface Expression-Horse Radish Peroxidase (CSE-HRP) assay
Format: cell-based
Conditions: CFBE41o-F508delCFTR-HRP cells; for Maximum % activity (with co-corrector): with co-corrector (2 μM); for Maximum % activity (with co-corrector) / Maximum % activity (without co-corrector): normalized to on-plate positive control, highest concentration 20 μM
Summary of the method: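 CFBE41o- cells expressed F508delCFTR with HRP in the fourth exofacial loop, induced by 0.5 μg/mL doxycycline for 72 h at 37 °C. Compounds alone or with 2 μM co-corrector ran 18–24 h at 33 °C, 8-point 3-fold from 20 μM. Washed-cell luminol luminescence was normalized to DMSO and positive control, fitted sigmoidally for EC50 (three plates).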

[1] = test compound without co-corrector, 18-24 hours at 33° C., read-out: EC50 (without co-corrector)
[2] = with co-corrector (2 μM of 3-[(2R,4R)-4-({[1-(2,2-difluoro-1,3-benzodioxol-5-yl)cyclopropyl]carbonyl}amino)-7-methoxy-3,4-dihydro-2H-chromen-2-yl]benzoic acid), read-out: EC50 (with co-corrector)

T1 sequence (P13569 with tags, fused parts or gaps DEL508-508): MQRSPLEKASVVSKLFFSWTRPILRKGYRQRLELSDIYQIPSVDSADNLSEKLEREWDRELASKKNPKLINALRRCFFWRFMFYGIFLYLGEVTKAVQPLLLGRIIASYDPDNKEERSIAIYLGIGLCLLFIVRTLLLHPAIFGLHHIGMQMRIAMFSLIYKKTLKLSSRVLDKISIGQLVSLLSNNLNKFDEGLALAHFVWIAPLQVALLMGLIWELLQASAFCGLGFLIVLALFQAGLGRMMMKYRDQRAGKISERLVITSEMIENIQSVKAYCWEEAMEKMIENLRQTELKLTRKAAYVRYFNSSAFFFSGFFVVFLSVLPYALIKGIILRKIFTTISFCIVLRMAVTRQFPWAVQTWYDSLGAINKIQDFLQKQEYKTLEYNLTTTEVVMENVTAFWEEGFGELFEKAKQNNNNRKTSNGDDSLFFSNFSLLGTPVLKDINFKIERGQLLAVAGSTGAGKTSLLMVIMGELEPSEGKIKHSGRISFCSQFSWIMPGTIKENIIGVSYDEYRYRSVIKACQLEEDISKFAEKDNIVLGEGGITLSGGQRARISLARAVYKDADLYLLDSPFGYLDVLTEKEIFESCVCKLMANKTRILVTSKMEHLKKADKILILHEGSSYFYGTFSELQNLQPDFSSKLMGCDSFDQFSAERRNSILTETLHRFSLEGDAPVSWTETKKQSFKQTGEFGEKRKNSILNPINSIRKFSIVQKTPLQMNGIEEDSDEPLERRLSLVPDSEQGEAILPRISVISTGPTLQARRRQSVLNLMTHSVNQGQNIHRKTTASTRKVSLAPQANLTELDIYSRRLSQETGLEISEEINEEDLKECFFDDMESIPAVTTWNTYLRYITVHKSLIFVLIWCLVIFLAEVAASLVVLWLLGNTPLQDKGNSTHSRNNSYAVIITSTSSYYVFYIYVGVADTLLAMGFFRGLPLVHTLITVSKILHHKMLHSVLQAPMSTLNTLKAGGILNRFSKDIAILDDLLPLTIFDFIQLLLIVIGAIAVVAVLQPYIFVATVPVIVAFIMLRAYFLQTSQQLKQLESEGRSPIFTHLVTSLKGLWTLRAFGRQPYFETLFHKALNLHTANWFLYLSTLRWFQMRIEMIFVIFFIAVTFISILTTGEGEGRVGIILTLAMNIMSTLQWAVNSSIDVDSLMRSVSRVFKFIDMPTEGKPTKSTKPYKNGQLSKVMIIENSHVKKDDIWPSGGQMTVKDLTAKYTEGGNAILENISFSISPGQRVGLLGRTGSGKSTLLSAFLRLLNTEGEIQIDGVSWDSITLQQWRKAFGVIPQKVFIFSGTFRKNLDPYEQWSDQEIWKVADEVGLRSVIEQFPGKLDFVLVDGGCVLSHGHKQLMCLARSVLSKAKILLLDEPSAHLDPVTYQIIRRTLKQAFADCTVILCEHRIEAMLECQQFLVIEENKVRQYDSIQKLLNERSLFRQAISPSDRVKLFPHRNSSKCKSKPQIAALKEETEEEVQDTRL

Row | EC50 [1] [µM] | EC50 [2] [µM] | Maximum % activity (with co-corrector) | Maximum % activity (without co-corrector) | SMILES
1 | 1 to 10 | < 1 | +++ (≥350) | + (<100) | COc1ncc(C2CCC2)cc1CO[C@H]1[C@H](C(C)(C)C)[C@@H](C(=O)O)N(C(=O)C2CCCCC2)[C@H]1c1cccc2c1OC(C)(C)C2 [Example 256, (2S,3R,4S,5S)-3-tert-butyl-4-[(5-cyclobutyl-2-methoxypyridin-3-yl)methoxy]-1-(cyclohexanecarbonyl)-5-(2,2-dimethyl-2,3-dihydro-1-benzofuran-7-yl)pyrrolidine-2-carboxylic acid]
2 | 1 to 10 | < 1 | +++ (≥350) | ++ (≥100 and <200) | COc1ccc(C(F)(F)F)cc1CO[C@@H]1[C@@H](C(C)(C)C)[C@H](C(=O)O)N(C(=O)[C@H]2CCC[C@H](OC)C2)[C@@H]1c1ccccc1 [Example 27, (2R,3S,4R,5R)-3-tert-butyl-1-[(1S,3S)-3-methoxycyclohexane-1-carbonyl]-4-{[2-methoxy-5-(trifluoromethyl)phenyl]methoxy}-5-phenylpyrrolidine-2-carboxylic acid]
3 | 1 to 10 | < 1 | +++ (≥350) | ++ (≥100 and <200) | COc1ccc(C(F)(F)F)cc1CO[C@H]1[C@H](C(C)(C)C)[C@@H](C(=O)O)N(C(=O)[C@H]2CCC[C@H](OC)C2)[C@H]1c1ccccc1 [Example 30, (2S,3R,4S,5S)-3-tert-butyl-1-[(1S,3S)-3-methoxycyclohexane-1-carbonyl]-4-{[2-methoxy-5-(trifluoromethyl)phenyl]methoxy}-5-phenylpyrrolidine-2-carboxylic acid]
4 | 1 to 10 | 1 to 10 | ++ (≥150 and <350) | + (<100) | COc1ncc(N2CCCC2)cc1CO[C@H]1[C@H](C(C)(C)C)[C@@H](C(=O)O)N(C(=O)OC(C)C)[C@H]1c1ccccc1 [Example 82, (2S,3R,4S,5S)-3-tert-butyl-4-{[2-methoxy-5-(pyrrolidin-1-yl)pyridin-3-yl]methoxy}-5-phenyl-1-{[(propan-2-yl)oxy]carbonyl}pyrrolidine-2-carboxylic acid]
